Values after ≈ are worked out from the molar mass of the structure shown.

The subject of data set [1] is Acinetobacter baumannii. Briefly: Antimicrobial activity against extensively drug-resistant Acinetobacter baumannii AB5075 after 16 hrs by microbroth dilution method. It counts as functional. The settings on record: AB5075, 16 h. (In general: In broth dilution the organism is exposed to a series of concentrations in liquid medium.)
A short description of data set [2]: Drug degradation in cation adjusted Mueller-Hinton broth after 16 hrs by liquid chromatography. Format: physicochemical.
Data set [3] is described as follows: Half life in cation adjusted Mueller-Hinton broth by liquid chromatography. It counts as physicochemical.
In data set [4] the test system is Acinetobacter baumannii. Briefly: Antibacterial activity against Acinetobacter baumannii AB5075 infected in Galleria mellonella assessed as worm survival at 50 mg/kg after 3 days relative to control. Format: functional. The settings on record: AB5075, 72 h.
Data set [5] relates to Acinetobacter baumannii. The experiment in a line: Antimicrobial activity against multi drug-resistant Acinetobacter baumannii AB4878 after 16 hrs by microbroth dilution method. It counts as functional. Conditions: AB4878, 16 h.
Data set [6] has as its system Acinetobacter baumannii. The experiment in a line: Antimicrobial activity against multi drug-resistant Acinetobacter baumannii AB3806 after 16 hrs by microbroth dilution method. Conditions: AB3806, 16 h. It counts as functional.
Data set [7] is described as follows: Hemolytic activity against sheep RBC up to 512 ug/ml after 1 hr by UV spectrometric analysis. Format: ADME, cell-based, Ovis aries. The settings on record: erythrocyte.
Data set [8] has as its system Acinetobacter baumannii. Briefly: Antibacterial activity against Acinetobacter baumannii AB5075 infected in Galleria mellonella assessed as protection against bacterial infection by measuring survival of host at 100 mg/kg after 6 days relative to control. Format: functional. Conditions: AB5075, 144 h.
Data set [9] deals with Pseudomonas aeruginosa. The experiment in a line: Antimicrobial activity against Pseudomonas aeruginosa after 16 hrs by microbroth dilution method. It counts as functional.
In data set [10] the test system is Acinetobacter baumannii. Briefly: Antimicrobial activity against extensively drug-resistant Acinetobacter baumannii AB5075 in 0.02% linoleic acid supplemented media after 16 hrs by microbroth dilution method. Format: functional. The settings on record: AB5075, 16 h.
The test system of data set [11] is Acinetobacter baumannii. Briefly: Antimicrobial activity against multi drug-resistant Acinetobacter baumannii AB3785 after 16 hrs by microbroth dilution method. Format: functional. Conditions: AB3785, 16 h.
Data set [12] deals with Acinetobacter baumannii. The experiment in a line: Antimicrobial activity against multi drug-resistant Acinetobacter baumannii AB3638 after 16 hrs by microbroth dilution method. It counts as functional. The settings on record: AB3638, 16 h.
Data set [13] deals with Klebsiella pneumoniae. Briefly: Antimicrobial activity against Klebsiella pneumoniae after 16 hrs by microbroth dilution method. It counts as functional.
Data set [14] concerns Acinetobacter baumannii. The experiment in a line: Bactericidal activity against extensively drug-resistant Acinetobacter baumannii AB5075 assessed as log reduction in bacterial count at 4 to 16 ug/ml measured up to 24 hrs by time kill assay. Format: functional.
Data set [15] concerns Staphylococcus aureus. Briefly: Antimicrobial activity against methicillin-resistant Staphylococcus aureus after 16 hrs by microbroth dilution method. Format: functional.
The test system of data set [16] is Escherichia coli. Briefly: Antimicrobial activity against Escherichia coli after 16 hrs by microbroth dilution method. It counts as functional.
Data set [17] relates to Acinetobacter baumannii. Briefly: Antimicrobial activity against multi drug-resistant Acinetobacter baumannii AB4957 after 16 hrs by microbroth dilution method. It counts as functional. The settings on record: AB4957, 16 h.
Data set [18] deals with Acinetobacter baumannii. The experiment in a line: Antibacterial activity against Acinetobacter baumannii AB5075 infected in Galleria mellonella assessed as worm survival at 100 mg/kg after 3 days relative to control. The settings on record: AB5075, 72 h. Format: functional.
Data set [19] relates to Acinetobacter baumannii. The experiment in a line: Antimicrobial activity against multi drug-resistant Acinetobacter baumannii BAA1605 after 16 hrs by microbroth dilution method. Conditions: BAA1605, 16 h. Format: functional.
Data set [20] concerns Acinetobacter baumannii. The experiment in a line: Antibacterial activity against Acinetobacter baumannii AB5075 infected in Galleria mellonella assessed as protection against bacterial infection by measuring survival of host at 50 mg/kg after 6 days relative to control. Conditions: AB5075, 144 h. It counts as functional.

A word on the MIC: it is the lowest concentration found to suppress growth. A higher MIC goes with weaker potency. With `SC1=NC2(CCCCC2)NN1c1ccccc1`, in [1], the MIC came out at 8 µg/mL (≈ 32.3 µM). Turning to `CCC1(CC)NC(=S)N(c2ccccc2)N1`, the lowest concentration to inhibit growth in [1] (MIC) was 8 µg/mL (≈ 34 µM). Turning to `CC1(C)NC(=S)N(c2ccccc2)N1`, in data set [1], the MIC was found to be 8 µg/mL (≈ 38.6 µM). On the same count and under the same terms, then `CC(C)C1(C)NC(=S)N(c2ccccc2)N1` (stereo unspecified), with 8 µg/mL (≈ 34 µM).

The compound `CCCCN1N(c2ccc(Cl)cc2)C(=S)NC1(C)C` displayed an MIC in data set [1] greater than 128 µg/mL. The same measure, in the same setting: the value for `CCC1NC(=S)N(c2ccccc2)N1` (stereo unspecified) was greater than 128 µg/mL; that for `CCCC1(CC)NC(=S)N(c2ccccc2)N1` (stereo unspecified) was 32 µg/mL (≈ 128 µM). The same measure, in the same setting: the value for `CCC1(CC)NC(=S)N(c2ccccc2F)N1` was 32 µg/mL (≈ 126 µM); that for `CCC1(CC)NC(=S)N(c2cccc(Cl)c2)N1` was 8 µg/mL (≈ 29.7 µM).

With `CCC1(CC)NC(=S)N(c2ccc(F)cc2)N1`, it took 4 µg/mL (≈ 15.8 µM) to inhibit growth in [1] (MIC). In the case of `CCCC1NC(=S)N(c2ccccc2)N1` (stereo unspecified), the MIC in data set [1] was determined as 64 µg/mL (≈ 289 µM).

In turn, `CC1(C)NNC(=S)N1c1ccc(Cl)cc1` displayed an MIC in [1] greater than 128 µg/mL. As for `CC1NC(=S)N(c2ccccc2)N1` (stereo unspecified), in [1], the MIC is greater than 128 µg/mL.

With `CC1(c2ccccc2)NC(=S)N(c2ccccc2)N1` (stereo unspecified), in data set [1], the MIC is greater than 128 µg/mL. What is called half-life is how long it takes for the measured level to halve. Low readings indicate fast loss, high ones slow loss. For `CC1(C)NC(=S)N(c2ccc(Cl)cc2)N1`, the Stability result in [2] is “Unstable”. The compound further showed a half-life in data set [3] of 2.5 h. Also, the figures for the survival at 50 mg/kg in data set [4] and in data set [20] were 42.5% and 22%, respectively. Moreover, the MIC was 2 µg/mL (≈ 8.27 µM) in data set [5]; 1 µg/mL (≈ 4.14 µM) in data set [6]; no less than 128 µg/mL in data set [9]; greater than 128 µg/mL in data set [10]; 1 µg/mL (≈ 4.14 µM) in data set [11]; 1 µg/mL (≈ 4.14 µM) in data set [12]. In addition, the MIC is no less than 128 µg/mL in data set [13]; no less than 128 µg/mL in data set [15]; no less than 128 µg/mL in [16]; 2 µg/mL (≈ 8.27 µM) in data set [17]; 2 µg/mL (≈ 8.27 µM) in data set [19]. The Activity result in data set [7] was “Non-Toxic”. Besides, the values for the survival at 100 mg/kg in data set [8] and in data set [18] were 32% and 45%, respectively. Also, in data set [14], the log reduction is greater than 6 log10 CFU/mL. In the case of `S=C1NC2(CCCC2)NN1c1ccccc1`, the MIC in [1] was 8 µg/mL (≈ 34.3 µM). On the same count and under the same terms, then `CCC1(C(C)C)NC(=S)N(c2ccccc2)N1` (stereo unspecified), with 32 µg/mL (≈ 128 µM); and `CCC1(CC)NC(=S)N(c2ccc(C#N)cc2)N1`, with greater than 128 µg/mL. The compound `CCC1(CC)NC(=S)N(c2ccccc2Cl)N1` came in with an MIC in data set [1] of 128 µg/mL (≈ 474 µM).

In turn, `CCC1(CC)NC(=S)N(c2ccc(C(C)C)cc2)N1` returned an MIC in [1] greater than 128 µg/mL. Still for that read-out and setting: the value for `CCCC1(CCC)NC(=S)N(c2ccccc2)N1` was 32 µg/mL (≈ 121 µM).

Regarding `CCC1(CC)NC(=S)N(c2ccc(Cl)cc2)N1`, the minimal inhibitory concentration (MIC) worked out at 4 µg/mL (≈ 14.8 µM) in [5]; 4 µg/mL (≈ 14.8 µM) in data set [6]; 2 µg/mL (≈ 7.41 µM) in [1]; 4 µg/mL (≈ 14.8 µM) in data set [11]; 4 µg/mL (≈ 14.8 µM) in data set [12]; 4 µg/mL (≈ 14.8 µM) in data set [17]. In [19], this compound registered an MIC of 4 µg/mL (≈ 14.8 µM).

`CCC1(CC)NC(=S)N(c2cc(F)cc(F)c2)N1` registered an MIC in [1] greater than 128 µg/mL. Same read-out and setting: the value for `CCC1(CC)NC(=S)N(c2cccc(F)c2)N1` was 8 µg/mL (≈ 31.6 µM). In data set [1], `CSC1=NC(C)(C)NN1c1ccc(Cl)cc1` had a minimum inhibitory concentration (MIC) greater than 128 µg/mL. Same read-out and setting: the value for `S=C1NC(c2ccccc2)NN1c1ccccc1` (stereo unspecified) was 64 µg/mL (≈ 251 µM); that for `CCC1(CC)NC(=S)N(c2ccc(I)cc2)N1` was 8 µg/mL (≈ 22.1 µM); that for `CCC1(CC)NC(=S)N(c2ccc(C(F)(F)F)cc2)N1` was greater than 128 µg/mL. Take `CCC1(C)NC(=S)N(c2ccccc2)N1` (stereo unspecified): the minimum inhibitory concentration (MIC) in data set [5] is 8 µg/mL (≈ 36.1 µM); in [6], 4 µg/mL (≈ 18.1 µM); in data set [1] it was 8 µg/mL (≈ 36.1 µM); in [11], 4 µg/mL (≈ 18.1 µM); in [12], 4 µg/mL (≈ 18.1 µM); in [17] it was 8 µg/mL (≈ 36.1 µM). The compound further had an MIC in [19] of 8 µg/mL (≈ 36.1 µM). In turn, `CCC1(CC)NC(=S)N(c2ccc([N+](=O)[O-])cc2)N1` had a minimum inhibitory concentration (MIC) in data set [1] greater than 128 µg/mL. For the compound `CN1N(c2ccc(Cl)cc2)C(=S)NC1(C)C`, the MIC in data set [1] was greater than 128 µg/mL. The same measure, in the same setting: then `CCC1(CC)NC(=S)N(c2ccc(Cl)c(Cl)c2)N1`, with greater than 128 µg/mL; and `CCCC1(C)NC(=S)N(c2ccccc2)N1` (stereo unspecified), with 16 µg/mL (≈ 68 µM).

In data set [1], `CCC1(CC)NC(=S)N(c2ccc(F)c(Cl)c2)N1` had an MIC of 32 µg/mL (≈ 111 µM).

`CCC1(CC)NC(=S)N(c2ccc(Br)cc2)N1` showed an MIC in [1] of 4 µg/mL (≈ 12.7 µM). Still for that read-out and setting: the value for `CC1(C)N=C(SCc2ccccc2)N(c2ccc(Cl)cc2)N1` was greater than 128 µg/mL.

The values are drawn from ChEMBL document CHEMBL3868640, “1,2,4-Triazolidine-3-thiones as Narrow Spectrum Antibiotics against Multidrug-Resistant Acinetobacter baumannii” (ACS Med Chem Lett, 2017).
